The values that follow come from the OligoGym collection.

After the bases stand the sugars from the 5' end (letter, count) and the backbone: PS all phosphorothioate, else s phosphorothioate and o phosphodiester by linkage. Methylation of C is not given here. l = locked nucleic acid (LNA); d = 2'-deoxy (DNA)

The data set concerns the target SNHG14. The following applies: ASO, Human Neuronal Cell.

As for TATCAATATCTTCTCA (sugars l2 d10 l4, PS), the target mRNA inhibition was determined as 46% (0.2 µM) and 61% (1 µM).

The sequence “ATTGATTCAATTCCCTT (sugars ldlddddddddllldll, PS)” came in with a target mRNA inhibition (7.5 µM) of 47%.

Turning to TTTATTAGATTACTCC (sugars l2 d10 l4, PS), the target mRNA inhibition turned out to be 24% (0.2 µM) and 17% (1 µM).

For AATGCTCACACTAATT (sugars l4 d10 l2, PS), the target mRNA inhibition came to 37% (0.2 µM) and 54% (1 µM).

On to “TTCTGTATACACCATCC (sugars ldldlddddddddddll, PS)”, for which the target mRNA inhibition (7.5 µM) worked out at 62%.

“AATTATTTATACACCAT (sugars l2 d11 l4, PS)”: the target mRNA inhibition stood at 2% (0.2 µM) and 32% (1 µM).

For “ATCTTTGACATTCCATC (sugars l2 d11 l4, PS)”, the target mRNA inhibition worked out at 54% (0.2 µM) and 61% (1 µM).

The sequence “AAATTATTTATACACCATCA (sugars l4 d10 l1 d2 l3, PS)” came in with a target mRNA inhibition (7.5 µM) of 66%.

Take TTACACATGTATATCC (sugars l3 d10 l3, PS): the target mRNA inhibition runs as follows: (0.2 µM) 41%; (1 µM) 36%.

“TCCATTTATTTCCATTTATT (sugars llddlddddddddldlddll, PS)”: the target mRNA inhibition (7.5 µM) amounted to 59%.

For the sequence ATGAAACTATTACTCC (sugars l2 d10 l4, PS), the target mRNA inhibition is, setting by setting: (0.2 µM) 18%; (1 µM) 35%.

For the sequence ACTCTTTAGATTCATC (sugars l2 d10 l4, PS), the target mRNA inhibition is, setting by setting: (0.2 µM) 53%; (1 µM) 44%.

In turn, “TTATAGCCATTCTATCT (sugars l2 d9 l1 d2 l3, PS)” registered a target mRNA inhibition (7.5 µM) of 53%.

Regarding “CCATTTATTTCCATTTATT (sugars ldldlddddddddldldll, PS)”, the target mRNA inhibition (7.5 µM) came out at 55%.

For the sequence “TCAAGAATTCTCTCCTT (sugars l2 d11 l4, PS)”, the target mRNA inhibition is 47% (0.2 µM) and 51% (1 µM).

“ACTGTTTATACCCTTTCC (sugars lddldlddddddddddll, PS)”: for the setting “7.5 µM”, the target mRNA inhibition came to 53%.

The sequence TACACATCTTGTATAC (sugars l3 d10 l3, PS) showed a target mRNA inhibition (0.2 µM) of 14% and a target mRNA inhibition (1 µM) of 36%.

As to “TATCTTTCCATTTATTTCC (sugars l1 d2 l2 d12 l2, PS)”, under “7.5 µM”, the target mRNA inhibition is 47%.

In turn, “GATCATTCTCAACAATTAA (sugars lldllddddddddlldlll, PS)” displayed a target mRNA inhibition (7.5 µM) of 28%.

In turn, “AAAATTATTTATACACCATC (sugars lllldlddddddddldllll, PS)” displayed a target mRNA inhibition (7.5 µM) of 59%.

For the setting “7.5 µM”, “TCTTTCCATTTATTTCCATT (sugars l2 d4 l1 d11 l2, PS)” gave a target mRNA inhibition of 48%.

Turning to “TTTTTATACCTTTCTTTAAC (sugars lldllddddddddllddlll, PS)”, the target mRNA inhibition (7.5 µM) was 60%.

With TAGCCTACTTTAATAT (sugars l4 d10 l2, PS), the target mRNA inhibition runs as follows: (0.2 µM) 25%; (1 µM) 11%.

For the sequence “CCATTCTATCTGCCAAA (sugars l2 d11 l4, PS)”, the target mRNA inhibition by setting is: (0.2 µM) 54%; (1 µM) 69%.

Where the note is “7.5 µM”, “CTGTTTATACCCTTTCCA (sugars ldlddddddddddlddll, PS)” came in with a target mRNA inhibition of 55%.

With “TACACTTAATTATACTTCCA (sugars l1 d2 l1 d13 l3, PS)”, the target mRNA inhibition (7.5 µM) came out at 54%.

On to “TTATAGCCATTCTATCT (sugars l2 d13 l2, PS)”, for which the target mRNA inhibition (7.5 µM) is 48%.

“TTATAGCCATTCTATCT (sugars l1 d10 l1 d1 l4, PS)” yielded a target mRNA inhibition (7.5 µM) of 53%.

As for “GAAAATCTCAACTACCATT (sugars l5 d12 l2, PS)”, the target mRNA inhibition (7.5 µM) stood at 60%.

The sequence “TATACCTTTCTTTAACCCTT (sugars lddddldddddddddlddll, PS)” registered a target mRNA inhibition (7.5 µM) of 61%.

Turning to “TTATACCTTTCTTTAACCCT (sugars lddddlddddddddldddll, PS)”, the target mRNA inhibition (7.5 µM) is 58%.
